Experimental data taken from patent publication US10065950B2, “Substituted thiazoles as HIV integrase inhibitors” (Japan Tobacco Inc., priority 2010, dated 2018).
pIC50: −log10 of the molar value.

target: HIV-1 pNL4-3 integrase (Human immunodeficiency virus type 1 group M subtype B (isolate NY5) (HIV-1), UniProt P12497); assay: Determination of enzyme (HIV integrase) inhibitory activity; format: biochemical; conditions: calculated from inhibition rate (fluorescence)
In short: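 Full-length pNL4-3 integrase from E. coli (0.75 μM stock) reacted 60 min at 37° C with compound and biotinylated donor DNA bound to streptavidin plates, in MOPS buffer with 5 mM MgCl2 and 10% DMSO. Digoxigenin-labelled target DNA (25 nM stock) then added for 20 min; strand transfer read by peroxidase anti-digoxigenin fluorescence (Ex 325/Em 420 nm).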

SMILES	pIC50
CCNC(=O)[C@@]1(C)CN(C(C)C)C(=O)c2c(O)c(=O)c(-c3ncc(Cc4ccc(F)cc4)s3)cn21 [Example 239]	7.80
COC[C@H]1CN(C(C)C)C(=O)c2c(O)c(=O)c(-c3nnc(Cc4ccc(OC)cc4)s3)cn21 [Example 240]	7.28
COC[C@H]1CN(C(C)C)C(=O)c2c(O)c(=O)c(-c3nnc(CCc4ccc(F)cc4)s3)cn21 [Example 241]	7.85
COC[C@H]1CN(C(C)C)C(=O)c2c(O)c(=O)c(-c3nnc(CCCc4ccc(F)cc4)s3)cn21 [Example 242]	7.89
COC[C@H]1CN(C(C)C)C(=O)c2c(O)c(=O)c(-c3nnc(Cc4ccc(F)c(Cl)c4)s3)cn21 [Example 243]	8.12
COC[C@H]1CN(C(C)C)C(=O)c2c(O)c(=O)c(-c3nnc(Cc4ccc(C(F)(F)F)cc4)s3)cn21 [Example 244]	7.13
CC(C)N1C[C@@](C)(C(=O)NC2CC2)n2cc(-c3ncc(Cc4ccc(F)cc4)s3)c(=O)c(O)c2C1=O [Example 245]	8.09
CC(C)N1C[C@@](C)(C(=O)NCC2CC2)n2cc(-c3ncc(Cc4ccc(F)cc4)s3)c(=O)c(O)c2C1=O [Example 246]	8.08
COC[C@@H]1[C@H](C)n2cc(-c3ncc(Cc4ccc(F)cc4)s3)c(=O)c(O)c2C(=O)N1C(C)C [Example 247]	8.00
CCN1C[C@@](C)(C(=O)N(C)C)n2cc(-c3ncc(Cc4ccc(F)cc4)s3)c(=O)c(O)c2C1=O [Example 248]	7.85
CCNC(=O)[C@]1(C)CN(CC)C(=O)c2c(O)c(=O)c(-c3ncc(Cc4ccc(F)cc4)s3)cn21 [Example 249]	7.92
COC[C@H]1CN(C(C)C)C(=O)c2c(O)c(=O)c(-c3nnc(Cc4ccc(F)c(OC)c4)s3)cn21 [Example 250]	7.77
COC[C@H]1CN(C(C)C)C(=O)c2c(O)c(=O)c(-c3nnc(Cc4ccc(F)cc4C4CC4)s3)cn21 [Example 251]	7.96
CCN1C(=O)c2c(O)c(=O)c(-c3ncc(Cc4ccc(F)cc4)s3)cn2C[C@@]1(C)C(=O)NC [Example 252]	8.04
CCN1C(=O)c2c(O)c(=O)c(-c3ncc(Cc4ccc(F)cc4)s3)cn2C[C@@]1(C)C(=O)N(C)C [Example 253]	8.11
CCN1C(=O)c2c(O)c(=O)c(-c3ncc(Cc4ccc(F)cc4)s3)cn2C[C@@]1(C)C(=O)N1CCCC1 [Example 254]	8.12
C[C@]1(C(=O)N2CCC2)CN(CC2CC2)C(=O)c2c(O)c(=O)c(-c3ncc(Cc4ccc(F)cc4)s3)cn21 [Example 255]	8.05
COC[C@H]1[C@@H](C)N(C(C)C)C(=O)c2c(O)c(=O)c(-c3nnc(Cc4ccc(F)cc4)s3)cn21 [Example 256]	8.09
COC[C@@H]1[C@H](C)n2cc(-c3nnc(Cc4ccc(F)cc4)s3)c(=O)c(O)c2C(=O)N1CC1CC1 [Example 257]	8.04
CCN1C(=O)c2c(O)c(=O)c(-c3nnc(Cc4ccc(F)cc4)s3)cn2[C@@H](COC)[C@H]1C [Example 258]	8.03
COC[C@H]1[C@@H](C)N(CC2CC2)C(=O)c2c(O)c(=O)c(-c3nnc(Cc4ccc(F)cc4)s3)cn21 [Example 259]	8.05
CCN1C(=O)c2c(O)c(=O)c(-c3ncc(Cc4ccc(F)cc4)s3)cn2[C@@H](C)[C@H]1COC [Example 260]	7.92
CCN1C(=O)c2c(O)c(=O)c(-c3ncc(Cc4ccc(F)cc4)s3)cn2[C@@H](COC)[C@H]1C [Example 261]	7.96
COC1CN(C(=O)[C@@]2(C)CN(CC3CC3)C(=O)c3c(O)c(=O)c(-c4ncc(Cc5ccc(F)cc5)s4)cn32)C1 [Example 262]	8.00
CCN1C[C@](C)(C(=O)N2CC(OC)C2)n2cc(-c3ncc(Cc4ccc(F)cc4)s3)c(=O)c(O)c2C1=O [Example 263]	8.05

SMILES	pIC50
CN(C)C(=O)[C@]1(C)CN(C)C(=O)c2c(O)c(=O)c(-c3ncc(Cc4ccc(F)cc4)s3)cn21 [Example 264]	8.07
CCN(C)C(=O)[C@]1(C)CN(C)C(=O)c2c(O)c(=O)c(-c3ncc(Cc4ccc(F)cc4)s3)cn21 [Example 265]	8.03
CN1C[C@@](C)(C(=O)N2CCC2)n2cc(-c3ncc(Cc4ccc(F)cc4)s3)c(=O)c(O)c2C1=O [Example 266]	7.96
CCNC(=O)[C@]1(C)CN(C2CC2)C(=O)c2c(O)c(=O)c(-c3ncc(Cc4ccc(F)cc4)s3)cn21 [Example 267]	7.96
C[C@@]1(C(=O)N2CCC2)CN(C2CC2)C(=O)c2c(O)c(=O)c(-c3ncc(Cc4ccc(F)cc4)s3)cn21 [Example 268]	7.82
CCN1C[C@](C)(CO)n2cc(-c3nnc(Cc4ccc(F)cc4)s3)c(=O)c(O)c2C1=O [Example 269]	8.03
CCN1C(=O)c2c(O)c(=O)c(-c3nnc(Cc4ccc(F)cc4)s3)cn2C[C@@]1(C)COC [Example 270]	8.02
CCN1C[C@@](C)(C(=O)N2CCC2)n2cc(-c3ncc(Cc4ccc(F)cc4)s3)c(=O)c(O)c2C1=O [Example 271]	7.96
COC1CN(C(=O)CC2CN(C(C)C)C(=O)c3c(O)c(=O)c(-c4ncc(Cc5ccc(F)cc5F)s4)cn32)C1 (stereo not shown) [Example 272]	8.05
C[C@@H](C1CC1)N1C[C@](C)(C(=O)N2CCC2)n2cc(-c3ncc(Cc4ccc(F)cc4)s3)c(=O)c(O)c2C1=O [Example 273]	7.85
COC1CN(C(=O)[C@@]2(C)CN([C@@H](C)C3CC3)C(=O)c3c(O)c(=O)c(-c4ncc(Cc5ccc(F)cc5)s4)cn32)C1 [Example 274]	7.92
C[C@@H](C1CC1)N1C[C@](C)(C(=O)N(C)C)n2cc(-c3ncc(Cc4ccc(F)cc4)s3)c(=O)c(O)c2C1=O [Example 275]	7.85
CCNC(=O)[C@@]1(C)CN([C@@H](C)C2CC2)C(=O)c2c(O)c(=O)c(-c3ncc(Cc4ccc(F)cc4)s3)cn21 [Example 276]	7.80
COC[C@H]1CN(C(C)C)C(=O)c2c(O)c(=O)c(-c3nnc(Cc4cc(OC)c(F)cc4F)s3)cn21 [Example 277]	7.92
CC[C@@H]1Cn2cc(-c3nnc(Cc4ccc(F)cc4)s3)c(=O)c(O)c2C(=O)N1C(C)C [Example 278]	8.00
C[C@@H]1Cn2cc(-c3nnc(Cc4ccc(F)cc4)s3)c(=O)c(O)c2C(=O)N1CC1CC1 [Example 279]	8.20
C[C@H](C1CC1)N1C[C@](C)(C(=O)N2CCC2)n2cc(-c3ncc(Cc4ccc(F)cc4)s3)c(=O)c(O)c2C1=O [Example 280]	7.80
COC1CN(C(=O)[C@@]2(C)CN([C@H](C)C3CC3)C(=O)c3c(O)c(=O)c(-c4ncc(Cc5ccc(F)cc5)s4)cn32)C1 [Example 281]	7.80
C[C@H](C1CC1)N1C[C@](C)(C(=O)N(C)C)n2cc(-c3ncc(Cc4ccc(F)cc4)s3)c(=O)c(O)c2C1=O [Example 282]	7.82
CCNC(=O)[C@@]1(C)CN([C@H](C)C2CC2)C(=O)c2c(O)c(=O)c(-c3ncc(Cc4ccc(F)cc4)s3)cn21 [Example 283]	7.74
CCN1C(=O)c2c(O)c(=O)c(-c3nnc(Cc4ccc(F)cc4)s3)cn2[C@@H](COC)[C@@H]1C [Example 284]	7.96
COC[C@H]1[C@H](C)N(C(C)C)C(=O)c2c(O)c(=O)c(-c3nnc(Cc4ccc(F)cc4)s3)cn21 [Example 285]	7.96
CCN1C(=O)c2c(O)c(=O)c(-c3nnc(Cc4ccc(F)cc4)s3)cn2C[C@H]1C(C)C [Example 286]	8.11
CCN1C(=O)c2c(O)c(=O)c(-c3nnc(Cc4ccc(F)cc4)s3)cn2C[C@@H]1C(C)C [Example 287]	8.10
